According to patent publication US4622319A, “Methods of using PAF-antagonistic diazepines” (Boehringer Ingelheim KG, priority 1984, dated 1986):

These compounds were tested on PAF-induced aggregation of human thrombocytes (assay: Inhibition of PAF-induced blood platelet aggregation in vitro). Settings: human thrombocyte-rich plasma, aggregation induced with PAF 5×10^-8 M, concentration giving 50% inhibition of aggregation, read-out: PAF-Antag. IC50.
Type: cell-based
Experimental: 1. Inhibition of blood platelet aggregation in vitro
The PAF-induced aggregation of human thrombocytes in vitro is used to determine PAF-antagonistic activity. To obtain thrombocyte-rich plasma (TRP), blood is taken from an uncongested vein using a plastic syringe containing 3.8% sodium citrate solution. The ratio of sodium citrate solution to blood is 1:9. After careful mixing the citrate blood is centrifuged for 20 minutes at 150 g (1200 rpm). The thrombocyte aggregation is measured using the method devised by Born and Cross (G. V. R. Born and M. J. Cross, J. Physiol. 168, 178 (1963)), by adding an aggregation initiator (PAF) to the TRP with constant stirring.
The test substance is added 2 to 3 minutes before aggregation is initiated in a volume of 10 μl. Either distilled water, ethanol and/or dimethylsulphoxide (each in suitable concentrations) can be used as solvent.
Control mixtures contain corresponding volumes of these solvents. After the initial absorption has been recorded (2 to 3 minutes) aggregation is induced with PAF (5×10^-8 M).
The maximum of the first aggregation wave is used to assess the effects of the substance. The PAF-induced maximum absorption rate (=maximum aggregation×100%) is tested at the same time in a parallel mixture (=control mixture in one of the channels of the two-channel aggregometer) as each test mixture (second channel) and is used as a 100% value.
The aggregation value attained under the effect of the test substance is given as a percentage of the control value, i.e. less than 100% in the case of an inhibition of aggregation and over 100% in the case of an increase.
Each test substance is investigated at concentrations of from 10^-3 to 10^-8 M with a random sampling of n=4 with regard to an inhibitory effect on the PAF-induced thrombocyte aggregation. Then a concentration-activity curve is drawn up using 3 concentrations and the IC50 is determined (concentration giving a 50% inhibition of aggregation).

Point of comparison: `CN1C(=O)CC(=O)N(c2ccccc2)c2cc(C(F)(F)F)ccc21` [Compound 2, Triflubazam, reference compound], IC50 200 µM. Against it:
- O=C1CC(=O)N(c2ccccc2)c2cc(Br)ccc2N1 — 2.4-fold higher, 470 µM
- CN1C(=O)CC(=O)N(c2ccccc2)c2cc(Cl)ccc21 [Compound 1, Clobazam, reference compound] — within 1.5-fold, 250 µM
- CCN1C(=O)CC(=O)N(c2ccccc2)c2cc(Cl)ccc21 [Compound 4] — 2-fold lower, 98 µM
- CN1C(=O)CC(=O)N(c2ccccc2Cl)c2cc(Cl)ccc21 [Compound 5] — within 1.5-fold, 220 µM
- CN1C(=O)CC(=O)N(c2ccccc2C(F)(F)F)c2cc(Cl)ccc21 [Compound 6] — 3-fold lower, 66 µM
- CN1C(=O)CC(=O)N(c2ccccc2F)c2ccccc21 [Compound 7] — 2.1-fold lower, 96 µM
- COc1ccccc1N1C(=O)CC(=O)N(C)c2ccc(Cl)cc21 [Compound 8] — within 1.5-fold, 290 µM
- CN1C(=O)CC(=O)N(c2ccccn2)c2cc(Br)ccc21 [Compound 9] — higher, > 1000 µM
- CN1C(=O)CC(=O)N(c2ccccc2Cl)c2cc([N+](=O)[O-])ccc21 [Compound 10] — 1.6-fold higher, 310 µM
- CN1C(=O)CC(=O)N(c2ccccc2)c2ccc(Cl)cc21 [Compound 11] — within 1.5-fold, 210 µM
- CC1C(=O)Nc2ccc(Br)cc2N(c2ccccc2)C1=O (centres unmarked) [Compound 12] — 1.8-fold higher, 350 µM
- CN1CCC(=O)N(c2ccccc2)c2cc(Br)ccc21 [Compound 13] — higher, > 1000 µM
- O=C1CCN(CCO)c2ccc(Cl)cc2N1c1ccccc1 [Compound 14] — within 1.5-fold, 285 µM
- CCN1CCC(=O)N(c2ccccc2)c2cnccc21 [Compound 15] — not separable, > 100 µM
- CN1C(=O)CC(=O)N(c2ccccc2)c2cnccc21 [Compound 16] — not separable, > 50 µM
- CCn1nc(C)c2c1N(c1ccccc1)C(=O)CC(=O)N2 [Compound 17] — not separable, > 100 µM
